Results: US20050267133A1, “Pyrazolopyrimidines as kinase inhibitors” (priority 2002, published 2005)
Where a name gives a salt, the structure may show the parent alone.

Each molecule was assayed against GSK-3β (Homo sapiens, UniProt P49841) (assay: GSK3 scintillation proximity assay (SPA) kinase assay). Conditions: 20 nM kinase, 2.5 uM ATP, biotinylated glycogen synthase peptide, 40 minutes at room temperature; -log IC50 in Molar; read-out: GSK-3 pIC50 (converted).
GSK-3β, sequence (P49841 whole entry, species assumed): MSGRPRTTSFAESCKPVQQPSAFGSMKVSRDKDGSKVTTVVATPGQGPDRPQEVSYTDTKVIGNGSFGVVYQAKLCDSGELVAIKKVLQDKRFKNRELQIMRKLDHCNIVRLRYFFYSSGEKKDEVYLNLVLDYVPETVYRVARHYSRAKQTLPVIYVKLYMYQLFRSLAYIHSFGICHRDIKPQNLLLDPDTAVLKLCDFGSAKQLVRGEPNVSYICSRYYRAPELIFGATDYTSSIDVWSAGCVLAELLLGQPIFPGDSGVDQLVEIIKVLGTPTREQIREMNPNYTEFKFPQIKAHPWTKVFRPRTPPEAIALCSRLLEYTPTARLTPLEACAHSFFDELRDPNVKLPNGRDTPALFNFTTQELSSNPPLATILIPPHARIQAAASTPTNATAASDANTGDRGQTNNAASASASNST
Type: biochemical
Description: The phosphorylated biotinylated peptide is then captured onto streptavidin coated scintillation proximity assay (SPA) beads from Amersham Technology, where the signal from the ^33P is amplified via the scintillant contained in the beads.
GSK-3β is commercially available or may be cloned and expressed in E. coli using standard techniques to produce soluble, active protein. The production of active protein involves purification in two steps using Metal Chelate and Ion Exchange Chromatography. Protein eluting from Ion Exchange provides >90% pure product that may then be concentrated for use in high throughput screening.
The kinase was assayed at a concentration of 20 nM final in 100 mM HEPES, pH 7.2 containing 10 mM magnesium chloride, 0.1 mg/mL bovine serum albumin, 1 mM dithiothreitol, 0.3 mg/mL heparin, 2.8 uM peptide substrate, 2.5 uM ATP, and 0.2 uCi/well [[…]-^33P]-ATP. After 40 minutes incubation at room temperature, the reaction was stopped by addition of 100 mM EDTA and […] in 100 mM HEPES, pH7.2 followed by an additional solution of diluted Streptavidin coated SPA beads in PBS, pH 7.2 to give a final concentration of 0.25 mg of beads per assay well in a 96-well microtiter plate.
10 mM stock solutions of the compounds of the invention in 100% DMSO are generated as a first step in the screening process. The second step involves the creation of dose response plates where these compounds are diluted 10-fold in 100% DMSO to 1 mM concentrations and subsequently serially diluted 3-fold in 100% DMSO across the plate by automated liquid handling such that the final top concentration of inhibitor is 0.033 mM in the 30 uL kinase assay. The third step involves the creation of the assay plates. This is achieved by transferring 1 uL of the compounds to assay plates by automated liquid handling. The fourth step is to perform the assay as described and count the resulting plates in the Packard TopCount NXT microplate scintillation and luminescence counter.
The final step is data acquisition and analysis where IC50 values are generated for each compound by normalizing curve data to the equation 100*(U1−C2)/(C1−C2) (where U1 is the cpm value, C2 is the background, and C1 is the maximum number of counts), then fitting the normalized data to the equation y=Vmax*(1−(x/(K+x))). The IC50 values were converted to pIC50 values, i.e., −log IC50 in Molar concentration. The data is expressed below in Table 1.
Work on C(=N\Nc1ncnc2c1cnn2-c1ccccc1)/c1ccncc1 [Example 1, Isonicotinaldehyde (1-phenyl-1H-pyrazolo[3,4-d]pyrimidin-4-yl)hydrazone] yielded an IC50 of 0.1 to 1 µM.
C(=NNc1ncnc2c1cnn2-c1ccccc1)c1cccnc1 [Example 2, Nicotinaldehyde (1-phenyl-1H-pyrazolo[3,4-d]pyrimidin-4-yl)hydrazone] was tested, and the IC50 was under 0.1 µM.
COC(=O)c1cccc(/C=N/Nc2ncnc3c2cnn3-c2ccccc2)c1 [Example 3, Methyl 3-{(E)-[(1-phenyl-1H-pyrazolo[3,4-d]pyrimidin-4-yl)hydrazono]methyl}benzoate] gave an IC50 of 0.1 to 1 µM.
Molecule C(=N\Nc1ncnc2c1cnn2-c1ccccc1)/c1cnc2ccccc2c1 [Example 4, Quinoline-3-carbaldehyde (1-phenyl-1H-pyrazolo[3,4-d]pyrimidin-4-yl)hydrazone] has an IC50 of 0.1 to 1 µM.
Molecule OCCOc1cccc(/C=N/Nc2ncnc3c2cnn3-c2ccccc2)c1 [Example 5, 3-(2-Hydroxyethoxy)benzaldehyde (1-phenyl-1H-pyrazolo[3,4-d]pyrimidin-4-yl)hydrazone] has an IC50 of under 0.1 µM.
With Oc1cccc(/C=N/Nc2ncnc3c2cnn3-c2ccccc2)c1 [Example 6, 3-Hydroxybenzaldehyde (1-phenyl-1H-pyrazolo[3,4-d]pyrimidin-4-yl)hydrazone] the IC50 was 0.1 to 1 µM.
Work on COc1cc(/C=N/Nc2ncnc3c2cnn3-c2ccccc2)cc(O)c1OC [Example 7, 3-Hydroxy-4,5-dimethoxybenzaldehyde (1-phenyl-1H-pyrazolo[3,4-d]pyrimidin-4-yl)hydrazone] yielded an IC50 of under 0.1 µM.
For CC(C)(C)OC(=O)N1CCC(/C=N/Nc2ncnc3c2cnn3-c2ccccc2)CC1 [Example 8, tert-butyl 4-{(E)-[(1-phenyl-1H-pyrazolo[3,4-d]pyrimidin-4-yl)hydrazono]methyl}piperidine-1-carboxylate], the IC50 was 0.1 to 1 µM.
With C(=N\Nc1ncnc2c1cnn2-c1ccccc1)/C1CCNCC1 [Example 9, Piperidine-4-carbaldehyde (1-phenyl-1H-pyrazolo[3,4-d]pyrimidin-4-yl)hydrazone trifluoroacetate] the IC50 was 0.1 to 1 µM.
For CC(=O)Nc1ccc(/C=N/Nc2ncnc3c2cnn3-c2ccccc2)cn1 [Example 10, N-(5-{(E)-[2-(1-phenyl-1H-pyrazolo[3,4-d]pyrimidin-4-yl)hydrazono]methyl}pyridin-2-yl)acetamide], the IC50 was under 0.1 µM.
Work on Nc1ccc(/C=N/Nc2ncnc3c2cnn3-c2ccccc2)cn1 [Example 12, 6-aminonicotinaldehyde (1-phenyl-1H-pyrazolo[3,4-d]pyrimidin-4-yl)hydrazone trifluoroacetate] yielded an IC50 of 0.1 to 1 µM.
Work on CN(C)c1ccc(/C=N/Nc2ncnc3c2cnn3-c2ccccc2)cn1 [Example 13, 6-(dimethylamino)nicotinaldehyde (1-phenyl-1H-pyrazolo[3,4-d]pyrimidin-4-yl)hydrazone] yielded an IC50 of 1 to 10 µM.
Clc1cc(/C=N/Nc2ncnc3c2cnn3-c2ccccc2)ccn1 [Example 14, 2-chloroisonicotinaldehyde (1-phenyl-1H-pyrazolo[3,4-d]pyrimidin-4-yl)hydrazone] showed an IC50 of 0.1 to 1 µM.
COc1cc(/C=N/Nc2ncnc3c2cnn3-c2ccccc2)ccn1 [Example 15, 2-methoxyisonicotinaldehyde (1-phenyl-1H-pyrazolo[3,4-d]pyrimidin-4-yl)hydrazone] gave an IC50 of 0.1 to 1 µM.
With Clc1ccc(/C=N/Nc2ncnc3c2cnn3-c2ccccc2)cn1 [Example 16, 6-chloronicotinaldehyde (1-phenyl-1H-pyrazolo[3,4-d]pyrimidin-4-yl)hydrazone] the IC50 was under 0.1 µM.
COc1ccc(/C=N/Nc2ncnc3c2cnn3-c2ccccc2)cn1 [Example 17, 6-methoxynicotinaldehyde (1-phenyl-1H-pyrazolo[3,4-d]pyrimidin-4-yl)hydrazone] gave an IC50 of 0.1 to 1 µM.
CN(C)CCOc1ccc(/C=N/Nc2ncnc3c2cnn3-c2ccccc2)cn1 [Example 18, 6-[2-(dimethylamino)ethoxy]nicotinaldehyde (1-phenyl-1H-pyrazolo[3,4-d]pyrimidin-4-yl)hydrazone] showed an IC50 of 0.1 to 1 µM.
CN(C)CCNc1ccc(/C=N/Nc2ncnc3c2cnn3-c2ccccc2)cn1 [Example 19, 6-{[2-(dimethylamino)ethyl]amino}nicotinaldehyde (1-phenyl-1H-pyrazolo[3,4-d]pyrimidin-4-yl)hydrazone hydrochloride] gave an IC50 of under 0.1 µM.
O=S(=O)(NCCN1CCOCC1)c1ccc(/C=N/Nc2ncnc3c2cnn3-c2ccccc2)cc1 [Example 21, N-(2-morpholin-4-ylethyl)-4-{(E)-[(1-phenyl-1H-pyrazolo[3,4-d]pyrimidin-4-yl)hydrazono]methyl}benzenesulfonamide] showed an IC50 of under 0.1 µM.
CN(C)CCNS(=O)(=O)c1ccc(/C=N/Nc2ncnc3c2cnn3-c2ccccc2)cc1 [Example 22, N[2-(dimethylamino)ethyl]-4-[{(E)[(1-phenyl-1H-pyrazolo[3,4-d]pyrimidin-4-yl)hydrazono]methyl}benzenesulfonamide hydrochloride] showed an IC50 of under 0.1 µM.
O=S(=O)(NCCCN1CCCC1)c1ccc(/C=N/Nc2ncnc3c2cnn3-c2ccccc2)cc1 [Example 23, 4-{(E)-[(1-phenyl-1H-pyrazolo[3,4-d]pyrimidin-4-yl)hydrazono]methyl}-N-(3-pyrrolidin-1-ylpropyl)benzenesulfonamide] gave an IC50 of under 0.1 µM.
O=C(NCc1ccccn1)c1ccc(/C=N/Nc2ncnc3c2cnn3-c2ccccc2)cc1 [Example 28, 4-{(E)-[(1-phenyl-1H-pyrazolo[3,4-d]pyrimidin-4-yl)hydrazono]methyl}-N-(pyridin-2-ylmethyl)benzamide] gave an IC50 of 0.1 to 1 µM.
CN(C)CCNC(=O)c1cccc(/C=N/Nc2ncnc3c2cnn3-c2ccccc2)c1 [Example 40, N-[2-(dimethylamino)ethyl]-3-{(E)-[(1-phenyl-1H-pyrazolo[3,4-d]pyrimidin-4-yl)hydrazono]methyl}benzamide] showed an IC50 of under 0.1 µM.
Work on CS(=O)(=O)CCNC(=O)c1cccc(/C=N/Nc2ncnc3c2cnn3-c2ccccc2)c1 [Example 41] yielded an IC50 of 0.1 to 1 µM.
Work on O=C(NCCN1CCOCC1)c1cccc(/C=N/Nc2ncnc3c2cnn3-c2ccccc2)c1 [Example 42, N-(2-morpholin-4-ylethyl)-3-{(E)-[(1-phenyl-1H-pyrazolo[3,4-d]pyrimidin-4-yl)hydrazono]methyl}benzamide] yielded an IC50 of 0.1 to 1 µM.
CCc1ccc(/C=N/Nc2ncnc3c2cnn3-c2ccccc2)o1 [Example 57, 5-Ethyl-2-furaldehyde [1-(phenyl)-1H-pyrazolo[3,4-d]pyrimidin-4-yl]hydrazone] showed an IC50 of 1 to 10 µM.
Cc1ccc(/C=N/Nc2ncnc3c2cnn3-c2ccccc2)o1 [Example 59, 5-Methyl-2-furaldehyde [1-(phenyl)-1H-pyrazolo[3,4-d]pyrimidin-4-yl]hydrazone] gave an IC50 of 0.1 to 1 µM.
C(=N\Nc1ncnc2c1cnn2-c1ccccc1)/c1ccnc2ccccc12 [Example 62, 4-Quinolinecarboxaldehyde [1-(phenyl)-1H-pyrazolo[3,4-d]pyrimidin-4-yl]hydrazone] gave an IC50 of 1 to 10 µM.

These molecules were tested against T1, GST-TIE2 (intracellular domains of human TIE2) (Homo sapiens, UniProt Q02763) (assay: TIE-2 Enzyme Assay (TIE2-E), LANCE method). Conditions: preactivated GST-TIE2, 1 μM D1-15 peptide, 80 uM ATP, 30 mins at room temperature; pIC50 = -log IC50 in Molar.
T1 construct: made in house
T1 sequence (Q02763 762-1104): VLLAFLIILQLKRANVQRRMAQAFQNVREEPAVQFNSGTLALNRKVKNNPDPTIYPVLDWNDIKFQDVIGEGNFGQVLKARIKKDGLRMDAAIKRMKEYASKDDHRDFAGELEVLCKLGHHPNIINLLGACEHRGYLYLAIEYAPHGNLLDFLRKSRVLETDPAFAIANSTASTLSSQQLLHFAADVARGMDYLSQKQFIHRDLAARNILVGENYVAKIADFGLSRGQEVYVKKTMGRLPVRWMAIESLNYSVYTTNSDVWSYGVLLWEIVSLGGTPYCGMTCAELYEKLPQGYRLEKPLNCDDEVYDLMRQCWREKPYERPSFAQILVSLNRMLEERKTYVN
Type: biochemical
Description: The TIE-2 enzyme assay used the LANCE method (Wallac) and GST-TIE2, baculovirus expressed recombinant constructs of the intracellular domains of human TIE2 (amino acids 762-1104, GenBank Accession # L06139) tagged by GST). The method measured the ability of the purified enzymes to catalyse the transfer of the γ-phosphate from ATP onto tyrosine residues in a biotinylated synthetic peptide, D1-15 (biotin-C6-LEARLVAYEGWVAGKKKamide). This peptide phosphorylation was detected using the following procedure: for enzyme preactivation, GST-TIE2 was incubated for 30 mins at room temperature with 2 mM ATP, 5 mM MgCl2 and 12.5 mM DTT in 22.5 mM HEPES buffer (pH7.4). Preactivated GST-TIE2 was incubated for 30 mins at room temperature in 96 well plates with 1 μM D1-15 peptide, 80 uM ATP, 10 mM MgCl2, 0.1 mg/ml BSA and the test compound (diluted from a 10 mM stock in DMSO, final DMSO concentration was 2.4%) in 1 mM HEPES (pH7.4). The reaction was stopped by the addition of EDTA (final concentration 45 mM). Streptavidin linked-APC (allophycocyanin, Molecular Probe) and Europium-labeled anti-phosphorylated tyrosine antibody (Wallac) were then added at the final concentration of 17 μg/well and 2.1 μg/well, respectively. The APC signal was measured using an ARVO multilabel counter. (Wallac Berthold Japan). The percent inhibition of activity was calculated relative to blank control wells.
The concentration of test compound that inhibits 50% of activity (IC50) was interpolated using nonlinear regression (Levernberg-Marquardt) and the equation, y=Vmax (1−x/(K+x))+Y2, where “K” was equal to the IC50. The IC50 values were converted to pIC50 values, i.e., −log IC50 in Molar concentration.
Test compounds are employed in free or salt form.
C(=N\Nc1ncnc2c1cnn2-c1ccccc1)/c1ccncc1 [Example 1, Isonicotinaldehyde (1-phenyl-1H-pyrazolo[3,4-d]pyrimidin-4-yl)hydrazone] gave an IC50 of 0.1 to 1 µM.
In the case of C(=NNc1ncnc2c1cnn2-c1ccccc1)c1cccnc1 [Example 2, Nicotinaldehyde (1-phenyl-1H-pyrazolo[3,4-d]pyrimidin-4-yl)hydrazone], the IC50 is reported as 1 to 10 µM.
Work on OCCOc1cccc(/C=N/Nc2ncnc3c2cnn3-c2ccccc2)c1 [Example 5, 3-(2-Hydroxyethoxy)benzaldehyde (1-phenyl-1H-pyrazolo[3,4-d]pyrimidin-4-yl)hydrazone] yielded an IC50 of 0.1 to 1 µM.
Oc1cccc(/C=N/Nc2ncnc3c2cnn3-c2ccccc2)c1 [Example 6, 3-Hydroxybenzaldehyde (1-phenyl-1H-pyrazolo[3,4-d]pyrimidin-4-yl)hydrazone] showed an IC50 of 1 to 10 µM.
COc1cc(/C=N/Nc2ncnc3c2cnn3-c2ccccc2)cc(O)c1OC [Example 7, 3-Hydroxy-4,5-dimethoxybenzaldehyde (1-phenyl-1H-pyrazolo[3,4-d]pyrimidin-4-yl)hydrazone] gave an IC50 of 0.1 to 1 µM.
